Results reported in article PMC12040169 (PLOS Biology, 2025).

assay: in vitro; conditions: human, hela cells, % viability

SMILES	viability at 28.5 h, 10 µM [%]
O=C(Cn1c(-c2ccc(F)cc2)cc2cccnc21)NC1CC1 [CBK284861]	103
COc1cccc(OCCO)c1 [CBK000514]	93.1
CC(=O)c1sc(NC(=O)c2ccc(N3C(=O)CCC3=O)cc2)nc1C [CBK287334]	86.5
O=C(Nc1nnc(-c2ccco2)o1)c1cccc(C(F)(F)F)c1 [CBK287422]	88.6
Cc1cc(S(=O)(=O)Nc2ccnn2C(C)C)ccc1F [CBK283069]	96.9
CCNc1cc2ccccc2c(-c2ccc(OC)c(C)c2)n1 [CBK089644]	86
c1cnc2[nH]c(C3CCNCC3)c(CN3CCCCCC3)c2c1 [CBK285057]	102
Cn1c(=O)n(CC(=O)NC23CC4CC(CC(C4)C2)C3)c2cccnc21 [CBK283795]	81.7
O=C(CCS(=O)(=O)c1ccccc1)Nc1cccnc1N1CCNCC1 [CBK028262T]	103
O=C(Nc1ccc(Cl)cc1C(=O)O)c1ccccc1Cl [CBK000171]	91.4
COc1ccc([C@]23CN(C)C[C@H]2CCN(C(=O)Nc2ccc(Cl)c(F)c2)C3)cc1OC [CBK081140T]	98.3
CCCCCCn1nc(C(=O)NCC(=O)O)c2ccccc2c1=O [CBK297491]	97.3
Cc1ccc(S(=O)(=O)NC(C)C(=O)Nc2cc(C(F)(F)F)ccc2Cl)cc1 (stereo not shown) [CBK266546]	109
Cc1ccccc1OCC(=O)Oc1ccc(-c2cnc3ccccc3n2)cc1 [CBK264703]	100
CC(C)c1cc(C(=O)NC2CCOc3ccccc32)no1 (stereo not shown) [CBK283065]	93.9
COc1cc(C(=O)N2CCN(S(=O)(=O)c3ccccc3[N+](=O)[O-])CC2)cc(OC)c1OC [CBK264182]	105
CCCNc1cc(-c2cccc(Cl)c2)nc2ccnn12 [CBK037747]	112
O=C(O)c1ccccc1NC1CC(=O)N(C2CCCCC2)C1 (stereo not shown) [CBK286556]	91.3
CCc1ccc(CNC(=O)Cn2nnc(-c3ccc(CNCC4CC4)cc3)n2)cc1 [CBK161032C]	109
S=C(NNC(=S)Nc1ccc(Cl)c(Cl)c1)Nc1cccnc1 [CBK268483]	96.2
CCC(Oc1cc(C)ccc1Cl)C(=O)Nc1sccc1C(N)=O (stereo not shown) [CBK268152]	105

SMILES	viability at 28.5 h, 10 µM [%]
N#Cc1cccc(C(=O)NCCc2nnc3n2CCCCC3)c1 [CBK259813]	105
O=C1CCC(=O)N1CCOc1nccnc1N1CCN(Cc2ccccc2)CC1 [CBK084288]	87.9
C#CCNC(=O)[C@@H]1Cc2cn(Cc3nccn3C)c3cccc(c23)[C@H](CC(C)C)N1 [CBK289424]	108
OC1(Cn2cnc3ccccc32)CCN(Cc2ccccc2F)CC1 [CBK284662]	85.3
N#Cc1ccc(CN2CCCN(C(=O)c3cccc(F)c3)CC2)cc1 [CBK304010]	96.2
CC(C)c1ccc(CN2CCN(c3nccnc3NS(C)(=O)=O)CC2)cc1 [CBK084271]	91
Cn1c(=O)n(C)c2cc(NC3=NS(=O)(=O)c4ccccc43)ccc21 [CBK270210]	91.9
O=C(CN1CCCC1=O)NC1(C(F)(F)F)NC(=O)N(c2ccc(F)cc2)C1=O (stereo not shown) [CBK268057]	98.1
O=C(O)C1C2CCC(O2)C1C(=O)Nc1cnn(Cc2ccccc2)c1 (stereo not shown) [CBK286849]	96
CS(=O)(=O)N1CCCCCC1c1cc(-c2cccs2)on1 (stereo not shown) [CBK284670]	85.5
O=C(c1cccc([N+](=O)[O-])c1)c1ccc2c(c1)C(=O)N(Cc1cccnc1)C2=O [CBK262784]	80.1
O=S(=O)(O)CCCSCCCS(=O)(=O)O [CBK278307N]	95.4
O=C(CCCN[C@H]1CC[C@](O)(c2ccc(F)cc2)CC1)c1ccc(F)cc1 [CBK023258C]	90.7
CC(C)Nc1cc(OCCCc2ccncc2)ncn1 [CBK115886]	104
CC(C)c1ccc(S(=O)(=O)Nc2ccc(Br)c(F)c2)cc1 [CBK044556]	100
Nc1nc(NCCOc2ccccc2F)cc(C2CCOC2)n1 (stereo not shown) [CBK306559]	78.2
Cc1ccc(-n2c(SCC(=O)N3CCOCC3)nnc2-c2ccccc2O)c(C)c1 [CBK269112]	88.1
O=C(Cn1c(-c2cccs2)cc2cccnc21)N1CCOCC1 [CBK282452]	101
Cc1ccc(S(=O)(=O)N2CCN(C(=O)C3CCCCC3C(=O)O)CC2)cc1C (stereo not shown) [CBK286936]	97
CCOC(=O)c1ccc(Cn2c(-c3ccccc3)nnc2-c2ccccc2)o1 [CBK267691]	87.8
Nc1nc(CC(=O)N2CCCCC2)cs1 [CBK049866]	97.9

SMILES	viability at 28.5 h, 10 µM [%]
O=C(C1CC1)N1CCC(c2nnc(-c3ccsc3)o2)CC1 [CBK283376]	91.6
COCC(=O)N1CCc2cc(-c3cn4ccccc4n3)ccc21 [CBK285274]	81.9
COc1ccc(/N=C(/Nc2cccc(C(F)(F)F)c2)SC)cc1 [CBK018896I]	98.4
COc1ccc(-c2cc(C3CCN(C4CCSCC4)C3)[nH]n2)cc1 (stereo not shown) [CBK285282]	99.3
c1coc(-c2nccnc2NCc2cccs2)c1 [CBK037340]	104
COc1cc(NC(=O)Cn2nc([N+](=O)[O-])c(Cl)c2C)c(OC)cc1Cl [CBK033535]	97.9
c1cncc(-c2nccnc2NCCCN2CCOCC2)c1 [CBK037286]	107
CC(CO)(CO)NCc1ccc(-c2ccccc2)cc1 [CBK268325C]	78.9
O=C(Nc1nc2c(s1)CCCCC2)C1CCN(S(=O)(=O)c2ccc(F)cc2)C1 (stereo not shown) [CBK285708]	111
Cc1cc(O)ccc1Nc1cc(-c2ccccc2N(C)C)ncn1 [CBK091051]	104
Nc1cccc(-c2nccnc2N2CCCC2CO)c1 (stereo not shown) [CBK036786]	102
O=S1(=O)C=C(c2ccc(Cl)cc2)S(=O)(=O)CC1 [CBK018403]	86.3
CC12CCC(C(=O)O)(c3nc4cc([N+](=O)[O-])ccc4nc31)C2(C)C (stereo not shown) [CBK266577K]	95.6
CC1=C[C@@H](CNC(=O)c2cccnc2)[C@H](C(C)C)C[C@H]1CC(=O)N1CCCC1 [CBK289055]	87.7
O=C1CC(SCc2nc3ccccc3[nH]2)C(=O)N1c1ccccc1Cl (stereo not shown) [CBK266702]	94.7
Cc1ccc(NC(=O)/C=C/c2ccc3c(c2)OCO3)c(NC(=O)/C=C/c2ccc3c(c2)OCO3)c1 [CBK265423]	114
COCCNc1nc(-c2ccc(F)cc2)cnc1N [CBK063591]	116
O=C(C1=C(O)C(=O)N(CCN2CCOCC2)C1c1ccco1)c1cccs1 (stereo not shown) [CBK264506]	96
c1cncc(COc2cncc(OC3CCN(CCN4CCOCC4)C3)n2)c1 (stereo not shown) [CBK084463]	99.7
COc1ccccc1C1OC(=O)CC1C(=O)N1CCN(c2ccc(C(F)(F)F)cc2)CC1 (stereo not shown) [CBK091313]	111

same assay, conditions: human, hela cells, % viability, bulk resorufin, single well

SMILES	viability at 28.5 h, 10 µM [%]
CONC(=O)c1nn(Cc2ccc(C)cc2)c2ccccc12 [CBK047848]	79.6
CC1(C)CC(=O)C=C(C(=O)Nc2cccc(-c3ccc4c(c3)COC3(CCNCC3)O4)c2)O1 [CBK093704]	97.8
